# Test results taken from article PMC11249646, “Small-Molecule Disruptors of the Interaction between Calcium- and Integrin-Binding Protein 1 and Integrin αIIbβ3 as Novel Antiplatelet Agents” (ACS Pharmacology & Translational Science, 2024).
# Like-named read-outs stand apart in the source and are kept apart here.
# What was measured:
# [1] = biological target: T1, GST-CIB1 : F-scrambled peptide (Homo sapiens, UniProt Q99828); test: FP scrambled-peptide counter screen, 1536-well format; assay type: binding; settings: for Curve Class (counterscreen) / COUNTERSCREEN Curve Class: qHTS curve class; for IC50: read-out: IC50 [μM] (counterscreen)
# T1 construct: made in house; host or cells: BL-21 plus RIL cells (E. coli)
# T1 sequence (Q99828 1-191): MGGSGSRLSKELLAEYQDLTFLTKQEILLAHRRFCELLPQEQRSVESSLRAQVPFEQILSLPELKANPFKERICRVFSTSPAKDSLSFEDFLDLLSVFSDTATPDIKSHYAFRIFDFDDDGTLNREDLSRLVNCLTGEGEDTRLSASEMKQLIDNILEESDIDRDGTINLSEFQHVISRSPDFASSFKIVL
# [2] = biological target: T2, CIB1 and αIIb interaction (CIB1-GST : F-αIIb peptide) (Homo sapiens, UniProt Q99828); test: FP assay, 1536-well qHTS format (primary and confirmatory screen); assay type: binding; settings: for Curve Class (confirmatory screen) / CONFIRMATORY SCREEN Curve Class: qHTS curve class
# T2 construct: made in house; host or cells: BL-21 plus RIL cells (E. coli)
# T2 sequence (Q99828 1-191): T1 sequence (Q99828 1-191)
# [3] = Table S3, counterscreen, a negative sign marks inhibitory curves
# [4] = Table S3, counterscreen, negative = inhibition
# [5] = Table S3, confirmatory screen, YES/NO call
# [6] = Table S3, confirmatory screen, a negative sign marks inhibitory curves
# [7] = Table S3, confirmatory screen, negative = inhibition
# [8] = Table S3, confirmatory screen, read-out: IC50 [μM] (confirmatory screen)
# [9] = qHTS primary screen hits, Table S2, negative = inhibition
# [10] = qHTS primary screen hits, Table S2, negative sign = inhibitory curve, several classes where COUNT > 1
# [11] = qHTS primary screen hits, Table S2, read-out: IC50
# [12] = counterscreen, negative sign = inhibitory curve
# [13] = confirmatory screen, negative sign = inhibitory curve
# [14] = confirmatory screen, read-out: IC50 [μM] (confirmatory screen)
# [15] = qHTS FP screen hits, Table S2, negative = inhibition
# [16] = qHTS FP screen hits, Table S2, one class per curve where COUNT > 1, negative sign = inhibitory curve
# [17] = qHTS FP screen hits, Table S2, read-out: IC50
# [18] = scrambled-peptide counterscreen
Compound,"Curve Class (counterscreen) [1, 3]","Efficacy (%) (counterscreen) [1, 4]","IC50 ([1]; Table S3, counterscreen)","Confirm? (confirmatory screen) [2, 5]","Curve Class (confirmatory screen) [2, 6]","Efficacy (%) (confirmatory screen) [2, 7]","Efficacy (%) [2, 9]","Curve Class [2, 10]","IC50 [2, 11]",further results
O=C(O)C(F)(F)F.O=C(O)c1ccc(Cc2c(-c3cccc(-c4ccccc4)c3)nn(-c3nc(C(=O)O)cs3)c2O)cc1 [NCGC00356639-01],-2.1,-99%,39.8 µM,YES,-2.2,-79%,-39%,-2.2,39.8 µM,"IC50 [2, 8]: 50.1 µM"
CC(C)Oc1cccc(NC(=O)c2ccccc2C(F)(F)F)c1 [NCGC00160537-04],,-39%,39.8 µM,,,,,,100 µM,"Confirm? (counterscreen) ([1]; Table S3, counterscreen, YES/NO call): YES"
CC(=O)NC(Cc1c[nH]c2ccccc(=O)c12)C(=O)O (centres unmarked) [NCGC00381382-01],,,,,,,,,,"Efficacy (%) (counterscreen) ([1]; counterscreen): -85%; Curve Class (counterscreen) [1, 12]: -2.2; IC50 ([1]; counterscreen): 89.1 µM; Efficacy (%) (confirmatory screen) ([2]; confirmatory screen): -74%; Confirm? (confirmatory screen) ([2]; confirmatory screen, YES/NO): YES; Curve Class (confirmatory screen) [2, 13]: -2.2; IC50 [2, 14]: 44.7 µM; Efficacy (%) [2, 15]: -50%; Curve Class [2, 16]: -2.2; IC50 [2, 17]: 50.1 µM"
C=C1[C@@H](C)[C@H]2[C@H](Cc3ccccc3)NC(=O)[C@]23OC(=O)/C=C/C(=O)CCC[C@@H](C)C/C=C/[C@H]3[C@@H]1O [NCGC00388356-01],,,,,,,,,,"Efficacy (%) (counterscreen) ([1]; counterscreen): -57%; Curve Class (counterscreen) [1, 12]: -1.2; IC50 ([1]; counterscreen): 5.6 µM; Efficacy (%) (confirmatory screen) ([2]; confirmatory screen): -94%; Confirm? (confirmatory screen) ([2]; confirmatory screen, YES/NO): YES; Curve Class (confirmatory screen) [2, 13]: -1.1; IC50 [2, 14]: 10 µM; Efficacy (%) [2, 15]: -73%; Curve Class [2, 16]: -1.2; IC50 [2, 17]: 20 µM"
O=C(O)C(F)(F)F.O=S(=O)(Nc1nccs1)c1ccc(Nc2nc(-c3ccccc3)cs2)cc1 [NCGC00262380-01],-2.1,-81%,50.1 µM,YES,-2.2,-80%,-69%,-2.2,50.1 µM,
CC(O)C(=O)O.CCOc1ccc2nc3cc(N)ccc3c(N)c2c1.O [NCGC00096056-02],-2.1,-204%,31.6 µM,YES,-2.1,-162%,-129%,-2.1,44.7 µM,"IC50 [2, 8]: 25.1 µM"
COc1ccccc1C(=O)/C=C1/C(=O)Nc2ccc(C)cc21.O=C(O)C(F)(F)F [NCGC00481357-01],,,,,,,-43%,-1.2,14.1 µM,"Efficacy (%) (counterscreen) ([1]; counterscreen): -51%; Curve Class (counterscreen) [1, 12]: -1.4; IC50 ([1]; counterscreen): 6.3 µM; Efficacy (%) (confirmatory screen) ([2]; confirmatory screen): -59%; Confirm? (confirmatory screen) ([2]; confirmatory screen, YES/NO): YES; Curve Class (confirmatory screen) [2, 13]: -1.4; IC50 [2, 14]: 5.6 µM"
COc1cc([C@H]2Oc3cc([C@H]4Oc5cc(O)cc(O)c5C(=O)[C@@H]4O)ccc3O[C@@H]2CO)ccc1O [NCGC00091057-05],,,,,,,,,,COUNTERSCREEN Efficacy (%) ([1]; counterscreen): 0%; COUNTERSCREEN Curve Class ([1]; counterscreen): 4; CONFIRMATORY SCREEN Efficacy (%) ([2]; confirmatory screen): -30%; CONFIRMATORY SCREEN Curve Class ([2]; confirmatory screen): 4
NS(=O)(=O)c1ccc(Nc2nc(-c3ccccc3)cs2)cc1.O=C(O)C(F)(F)F [NCGC00262411-01],-2.1,-98%,44.7 µM,YES,-2.2,-84%,-58%,-2.2,50.1 µM,
C[C@@H]1CC[C@]2(C)C3(C)CC[C@@]2(OC3=O)[C@@]12C[C@H](c1ccoc1)OC2=O [NCGC00180662-03],-1.2,-44%,8.9 µM,YES,-1.2,-44%,,,,"IC50 [2, 8]: 7.1 µM; Efficacy (%) [2, 15]: -33%; Curve Class [2, 16]: -1.2; IC50 [2, 17]: 10 µM"
O=C(Cc1ccc(Cl)c(Cl)c1)Nc1ccc(S(=O)(=O)Nc2cccc(C(=O)O)c2)cc1.O=C(O)C(F)(F)F [NCGC00248362-01],,,,,,,-20%,,12.6 µM,"COUNTERSCREEN Efficacy (%) [1, 18]: 26%; COUNTERSCREEN Confirm? ([1]; scrambled-peptide counterscreen, YES/NO call): YES; COUNTERSCREEN Curve Class [1, 18]: 4; CONFIRMATORY SCREEN Confirm? ([2]; confirmatory screen, YES/NO call): YES; CONFIRMATORY SCREEN Curve Class [2, 13]: -1.4; CONFIRMATORY SCREEN Efficacy (%) ([2]; confirmatory screen, negative = inhibition): -27%; Curve Class ([2]; qHTS primary screen hits, Table S2, negative sign = inhibitory curve): -1.4"
CC(OC(=O)c1ccc(S(C)(=O)=O)c([N+](=O)[O-])c1)C(=O)NC1C2CC3CC(C2)CC1C3 (centres unmarked) [NCGC00188535-01],,,,,,,-30%,-1.2,1.8 µM,COUNTERSCREEN Efficacy (%) ([1]; counterscreen): -20%; COUNTERSCREEN Curve Class ([1]; counterscreen): 4; CONFIRMATORY SCREEN Efficacy (%) ([2]; confirmatory screen): -32%; CONFIRMATORY SCREEN Curve Class ([2]; confirmatory screen): 4
O=C(O)c1ccccc1SC1=NS(=O)(=O)c2ccccc21 [NCGC00188636-02],4,0%,,,4,-29%,,,,"Efficacy (%) [2, 15]: -66%; Curve Class [2, 16]: -2.2; IC50 [2, 17]: 44.7 µM"
O=C1C=CC(=O)N1c1ccc(N2CCOCC2)cc1 [NCGC00373122-01],,,,,,,-33%,-2.4,28.2 µM,COUNTERSCREEN Efficacy (%) ([1]; counterscreen): -8%; COUNTERSCREEN Curve Class ([1]; counterscreen): 4; CONFIRMATORY SCREEN Efficacy (%) ([2]; confirmatory screen): -44%; CONFIRMATORY SCREEN Curve Class ([2]; confirmatory screen): 4
